From ChEMBL document CHEMBL1201862, “PubChem BioAssay data set” (2004)
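Growth conditions: 96-well plates. Treatment: test compound, 48 hours, 5 concentrations. Analysis: linear interpolation between bracketing concentrations; unreached endpoints set to highest concentration. GI50 = concentration required for 50% inhibition of growth.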 Active and inactive are the calls of the source. Cut-off read from the data, not from the text of the source: active = GI50 up to about 1.1 µM and inactive = higher.

Legend:
Assay in all cases: NCI tumour cell line growth inhibition, 48 h
HCT-15 = tested on: HCT-15
KM12 = tested on: KM12
NCI-H522 = tested on: NCI-H522
CAKI-1 = tested on: CAKI-1
SF-295 = tested on: SF-295
BT-549 = tested on: BT-549
HCC 2998 = tested on: HCC 2998
OVCAR-5 = tested on: OVCAR-5
MDA-MB-435 = tested on: MDA-MB-435
LOX IMVI = tested on: LOX IMVI
SK-OV-3 = tested on: SK-OV-3
NCI-H23 = tested on: NCI-H23
SF-539 = tested on: SF-539
M19-MEL = tested on: M19-MEL
M14 = tested on: M14
A498 = tested on: A498
SK-MEL-28 = tested on: SK-MEL-28
DLD-1 = tested on: DLD-1
EKVX = tested on: EKVX
SK-MEL-2 = tested on: SK-MEL-2

Row | SMILES | GI50 (HCT-15) | GI50 (KM12) | GI50 (NCI-H522) | GI50 (CAKI-1) | GI50 (SF-295) | GI50 (BT-549) | GI50 (HCC 2998) | GI50 (OVCAR-5) | GI50 (MDA-MB-435) | GI50 (LOX IMVI) | GI50 (SK-OV-3) | GI50 (NCI-H23) | GI50 (SF-539) | GI50 (M19-MEL) | GI50 (M14) | GI50 (A498) | GI50 (SK-MEL-28) | GI50 (DLD-1) | GI50 (EKVX) | GI50 (SK-MEL-2)
1 | CCC1(c2ccc(N)cc2)CCC(=O)NC1=O (stereo not given) [AMINOGLUTETHIMIDE] | 2380 µM | 2470 µM (inactive) | 2640 µM (inactive) | 1460 µM (inactive) | 1880 µM (inactive) | 1660 µM (inactive) | 3680 µM (inactive) | > 4920 µM (inactive) | > 2740 µM (inactive) | 2770 µM (inactive) | 1190 µM (inactive) | 3240 µM (inactive) | 3240 µM (inactive) | 2210 µM (inactive) | 2290 µM (inactive) | 2310 µM (inactive) | 3610 µM (inactive) | 3230 µM (inactive) | 3880 µM (inactive) | 3510 µM (inactive)
2 | CNC(=O)OCc1nc(SC)n(C)c1COC(=O)NC | 171 µM | 191 µM (inactive) | 74.1 µM (inactive) | 87.7 µM (inactive) | 187 µM (inactive) | 118 µM (inactive) | 122 µM (inactive) | 170 µM (inactive) | 161 µM (inactive) | 133 µM (inactive) | 63 µM (inactive) | 130 µM (inactive) | 133 µM (inactive) | 182 µM (inactive) | 164 µM (inactive) | 198 µM (inactive) | 188 µM (inactive) | 183 µM (inactive) | 230 µM (inactive) | 119 µM (inactive)
